Results taken from patent US20250161308A1, “Methods of Treating Covid-Related Disorders” (priority 2022, published 2025).
Where two headings read alike, the source gives them in different places. Where a SMILES comes first, the peptide text is derived from it. [ ]: non-standard residue; d: D form. The star is where a group is joined. Hexanoyl = CCCCCC(=O)*; Ahx = NCCCCCC(=O)O

Columns and labels:
[1] = test system: THP1-differentiated macrophages; assay type: cell-based, human; design: key to Significant reduction in IL-6 / Significant reduction in TNF-α / Significant reduction in IL-1β: NS: indicates a non-significant reduction in the indicated cytokine; +: indicates a p value<0.05 in Tukey post test; ++: indicates a p value<0.01 in Tukey post test; details: for Significant reduction in IL-1β / Significant reduction in IL-6 / Significant reduction in TNF-α: 24 hrs LPS
[2] = test system: Rat hippocampal neurons; assay: Neurite outgrowth assay; assay type: cell-based
[3] = test system: Rat primary cortical neuron cultures; assay type: cell-based; details: for Significance of neuroprotection vs 1 uM LPS: 24 h LPS
[4] = test system: pulmonary LPS-stimulated rats; assay: Cytokine expression in BALF supernatant (multiplex immunoassay), LPS acute pulmonary inflammation; assay type: in vivo, rat; details: 3 mg/kg IP
[5] = test system: pulmonary LPS-stimulated rats; assay: Immune cell infiltration in BALF, LPS acute pulmonary inflammation; assay type: in vivo, rat; details: rat, in vivo
[6] = test system: LPS-induced cognitive deficit in CD-1 mice; assay: Rodent LPS model of brain inflammation, T-maze spontaneous alternation; assay type: in vivo, mouse; details: for Recovery (%) / Spontaneous alternation (%) Mean: LPS 250 μg/kg
[7] = test system: bleomycin-induced pulmonary fibrosis in C57BL/6 mice; assay: Bleomycin-induced pulmonary fibrosis; assay type: in vivo, mouse
[8] = test system: Rat hippocampal neurons; assay: Synaptogenesis assay; assay type: cell-based
[9] = 100 mg/kg po BID, right lung homogenate

CCCCCC(=O)N[C@@H](Cc1ccc(O)cc1)C(=O)N[C@H](C(=O)NCCCCCC(N)=O)[C@@H](C)CC [A19 active metabolite, N-hexanoic-Tyr-Ile-(6)aminohexanoic amide] (Hexanoyl-Tyr-Ile-[Ahx]-NH2)
Significant reduction in IL-1β ([1]; 0.1 nM): NS | Significant reduction in IL-6 ([1]; 0.1 nM): NS | Significant reduction in TNF-α ([1]; 0.1 nM): NS | Significant reduction in IL-1β ([1]; 10 nM): ++ (indicates a p value<0.01 in Tukey post test) | Significant reduction in IL-6 ([1]; 10 nM): + (indicates a p value<0.05 in Tukey post test) | Significant reduction in TNF-α ([1]; 10 nM): + (indicates a p value<0.05 in Tukey post test) | Significant reduction in IL-1β ([1]; 1000 nM): + (indicates a p value<0.05 in Tukey post test) | Significant reduction in IL-6 ([1]; 1000 nM): ++ (indicates a p value<0.01 in Tukey post test) | Significant reduction in TNF-α ([1]; 1000 nM): ++ (indicates a p value<0.01 in Tukey post test) | expression of IL-1β (in words) ([1]; at at least one tested dose): significantly reduced the expression of IL-1β and TNF-α | expression of IL-6 (in words) ([1]; at at least one tested dose): significantly reduced the expression of IL-6 | expression of TNF-α (in words) ([1]; at at least one tested dose): significantly reduced the expression of IL-1β and TNF-α | neurite length / extension of neurites (in words) [2]: promoted the extension of neurites | Significant increase in: Neurite length ([2]; 10 nM, Table 3 study): ++++ (++++ = p < 0.0001) | Significance of neuroprotection vs 1 uM LPS ([3]; 0.1 nM): +++ (+++ indicates p<0.001) | Significance of neuroprotection vs 1 uM LPS ([3]; 1 nM): ++ (++ indicates p<0.01) | Significance of neuroprotection vs 1 uM LPS ([3]; 10 nM): +++ (+++ indicates p<0.001) | Significance of neuroprotection vs 1 uM LPS ([3]; 100 nM): ++ (++ indicates p<0.01) | Significance of neuroprotection vs 1 uM LPS ([3]; 1 μM): ++ (++ indicates p<0.01) | protection of primary neurons from LPS-stimulated inflammatory toxicity ([3]; at at least one dose tested): protected primary neurons from LPS-stimulated inflammatory toxicity

C[C@]12CCC(=O)C[C@@H]1CC[C@@H]1[C@@H]2CC[C@]2(C)[C@@H](O)CC[C@@H]12 [DHT, alpha-dihydrotestosterone, reference compound]
Significant increase in: Neurite length [2]: + (key: NS = not significant; + = p < 0.05; ++++ = p < 0.0001)

C[C@@H]1C[C@H]2[C@@H]3CCC4=CC(=O)C=C[C@]4(C)[C@@]3(F)[C@@H](O)C[C@]2(C)[C@@]1(O)C(=O)CO [Dex, Dexamethasone]
CCL2, significant change in expression in BALF supernatant [4]: + (+ = Significant change in cytokine quantification, p < 0.05 by Student's T-test.) | CCL3, significant change in expression in BALF supernatant [4]: + (+ = Significant change in cytokine quantification, p < 0.05 by Student's T-test.) | CCL5, significant change in expression in BALF supernatant [4]: + (+ = Significant change in cytokine quantification, p < 0.05 by Student's T-test.) | CCL11, significant change in expression in BALF supernatant [4]: + (+ = Significant change in cytokine quantification, p < 0.05 by Student's T-test.) | CX3CL1, significant change in expression in BALF supernatant [4]: + (+ = Significant change in cytokine quantification, p < 0.05 by Student's T-test.) | CXCL1, significant change in expression in BALF supernatant [4]: + (+ = Significant change in cytokine quantification, p < 0.05 by Student's T-test.) | CXCL5, significant change in expression in BALF supernatant [4]: + (+ = Significant change in cytokine quantification, p < 0.05 by Student's T-test.) | CXCL10, significant change in expression in BALF supernatant [4]: + (+ = Significant change in cytokine quantification, p < 0.05 by Student's T-test.) | EGF, significant change in expression in BALF supernatant [4]: + (+ = Significant change in cytokine quantification, p < 0.05 by Student's T-test.) | IFN-γ, significant change in expression in BALF supernatant [4]: + (+ = Significant change in cytokine quantification, p < 0.05 by Student's T-test.) | IL-1α, significant change in expression in BALF supernatant [4]: + (+ = Significant change in cytokine quantification, p < 0.05 by Student's T-test.) | IL-1β, significant change in expression in BALF supernatant [4]: + (+ = Significant change in cytokine quantification, p < 0.05 by Student's T-test.) | IL-5, significant change in expression in BALF supernatant [4]: + (+ = Significant change in cytokine quantification, p < 0.05 by Student's T-test.) | IL-6, significant change in expression in BALF supernatant [4]: + (+ = Significant change in cytokine quantification, p < 0.05 by Student's T-test.) | IL-10, significant change in expression in BALF supernatant [4]: + (+ = Significant change in cytokine quantification, p < 0.05 by Student's T-test.) | IL-12p70, significant change in expression in BALF supernatant [4]: + (+ = Significant change in cytokine quantification, p < 0.05 by Student's T-test.) | IL-13, significant change in expression in BALF supernatant [4]: + (+ = Significant change in cytokine quantification, p < 0.05 by Student's T-test.) | IL-17A, significant change in expression in BALF supernatant [4]: + (+ = Significant change in cytokine quantification, p < 0.05 by Student's T-test.) | TNF-α, significant change in expression in BALF supernatant [4]: + (+ = Significant change in cytokine quantification, p < 0.05 by Student's T-test.) | Neutrophils in BALF, reduction vs disease control [5]: +++ (key: + = >5% reduction in cell count vs disease control; ++ = >25% reduction in cell count vs disease control; +++ = >75% reduction in cell count vs disease control) | Total Leukocytes in BALF, reduction vs disease control [5]: +++ (key: + = >5% reduction in cell count vs disease control; ++ = >25% reduction in cell count vs disease control; +++ = >75% reduction in cell count vs disease control)

CC12CC3CC(C)(C1)CC(N)(C3)C2 [Memantine, reference compound]
Recovery (%) ([6]; 0.1 mg/kg i.p. 14 days): 76% | Spontaneous alternation (%) Mean ([6]; 0.1 mg/kg i.p. 14 days): 63.6% | Spontaneous alternation (%) Mean ([6]; 0.1 mg/kg i.p. 14 days, listed as memantine): 64% | Recovery (%) ([6]; 1 mg/kg i.p. 14 days): 38% | Spontaneous alternation (%) Mean ([6]; 1 mg/kg i.p. 14 days): 54.3% | Spontaneous alternation (%) Mean ([6]; 1 mg/kg i.p. 14 days, listed as memantine): 54% | significance of reversal of LPS-induced cognitive deficit (in words) ([6]; T-maze): significant at both doses

Cc1ccc(=O)n(-c2ccccc2)c1 [Pirfenidone, reference compound]
Right Lung Weight, improvement versus disease control ([7]; 100 mg/kg po BID, day 21): + (+ => 5-25% improvement v disease control) | Collagen, improvement versus disease control [7, 9]: ++ (++ => 26-50% improvement v disease control) | TGF-Beta, improvement versus disease control [7, 9]: +++ (+++ => 51-100% improvement v disease control) | protection against bleomycin-induced increases in TGF-β (in words) ([7]; all doses, day 21): significantly protected against bleomycin-induced increases in TGF-β | protection against body weight loss (in words) ([7]; all treatment groups): did not protect against body weight loss

HGF: hepatocyte growth factor, used as a positive control at 5 ng/ml
neurite length / extension of neurites (in words) [2]: increase both neurite length and synapse count | Significant increase in: Neurite length ([2]; 5 ng/ml, Table 4 study): +++ (+++ = p < 0.0005) | synapse counts (in words) [8]: increase both neurite length and synapse count | Significant increase in: Synapses ([8]; 5 ng/ml, Table 4 study): ++++ (++++ = p < 0.0001)
